Target: T1, human mGluR5d (Homo sapiens, UniProt P41594)
T1 construct: expressed in transfected cells
Assay: FLIPR assay of [Ca2+]i mobilization in cells expressing human mGluR5d (Group I receptor antagonist activity)
Type: cell-based
Details: antagonist block of agonist challenge
Source text: The pharmacological properties of the compounds of the invention can be analyzed using standard assays for functional activity. Examples of glutamate receptor assays are well known in the art as described in for example Aramori et al., Neuron 8:757 (1992), Tanabe et al., Neuron 8:169 (1992), Miller et al., J. Neuroscience 15: 6103 (1995), Balazs, et al., J. Neurochemistry 69:151 (1997). The methodology described in these publications is incorporated herein by reference. Conveniently, the compounds of the invention can be studied by means of an assay that measures the mobilization of intracellular calcium, [Ca^2+]i in cells expressing mGluR5. […]
FLIPR experiments were done using a laser setting of 0.800 W and a 0.4 second CCD camera shutter speed. […] After each addition of the compound, the fluorescence signal was sampled 50 times at 1 second intervals followed by 3 samples at 5 second intervals. Responses were measured as the peak height of the response within the sample period. […]
For FLIPR analysis, cells expressing human mGluR5d as described in WO97/05252 were seeded on collagen coated clear bottom 96-well plates with black sides and analysis of [Ca^2+]i mobilization was performed 24 h following seeding. […] After each addition the fluorescence signal was sampled 50 times at 1 second intervals followed by 3 samples at 5 second intervals. […]

T1 sequence (P41594 21-942 isoform P41594-3 limits assumed): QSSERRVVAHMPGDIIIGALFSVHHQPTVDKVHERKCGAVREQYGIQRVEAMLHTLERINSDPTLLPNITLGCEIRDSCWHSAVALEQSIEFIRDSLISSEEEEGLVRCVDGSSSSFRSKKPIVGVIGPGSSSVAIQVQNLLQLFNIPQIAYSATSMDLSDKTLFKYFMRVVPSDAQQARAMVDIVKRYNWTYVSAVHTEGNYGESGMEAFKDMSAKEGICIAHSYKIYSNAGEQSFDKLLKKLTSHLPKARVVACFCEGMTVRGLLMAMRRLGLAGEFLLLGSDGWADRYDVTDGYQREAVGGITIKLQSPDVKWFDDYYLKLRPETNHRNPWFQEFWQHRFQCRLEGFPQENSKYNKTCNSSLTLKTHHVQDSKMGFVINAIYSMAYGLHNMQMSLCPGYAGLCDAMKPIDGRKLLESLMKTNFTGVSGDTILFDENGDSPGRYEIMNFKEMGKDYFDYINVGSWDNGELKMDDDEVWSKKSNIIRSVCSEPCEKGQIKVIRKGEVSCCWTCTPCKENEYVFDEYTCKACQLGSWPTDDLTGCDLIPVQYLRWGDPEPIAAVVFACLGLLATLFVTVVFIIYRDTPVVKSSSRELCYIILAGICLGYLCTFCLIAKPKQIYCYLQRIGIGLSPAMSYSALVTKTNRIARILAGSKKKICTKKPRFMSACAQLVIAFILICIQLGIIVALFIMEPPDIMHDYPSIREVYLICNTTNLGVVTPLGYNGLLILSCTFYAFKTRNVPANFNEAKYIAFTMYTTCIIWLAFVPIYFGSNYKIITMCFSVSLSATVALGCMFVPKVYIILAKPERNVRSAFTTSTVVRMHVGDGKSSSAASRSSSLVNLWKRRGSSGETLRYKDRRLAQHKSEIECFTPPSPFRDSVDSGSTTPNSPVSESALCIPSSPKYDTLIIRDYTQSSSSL

SMILES | IC50 [µM]
CC(c1noc(-c2cccc(Cl)c2)n1)N1CCCCn2c(-c3ccncc3)nnc21 (centres unmarked) [9-{1-[5-(3-chlorophenyl)-1,2,4-oxadiazol-3-yl]ethyl}-3-pyridin-4-yl-6,7,8,9-tetrahydro-5H-[1,2,4]triazolo[4,3-a][1,3]diazepine] | 0.081
Clc1cccc(-c2nc(CC3CCn4c(-c5ccncc5)nnc43)no2)c1 (centres unmarked) [7-{[5-(3-chlorophenyl)-1,2,4-oxadiazol-3-yl]methyl}-3-pyridin-4-yl-6,7-dihydro-5H-pyrrolo[2,1-c][1,2,4]triazole] | 0.049
